Data as given in PMC12549899 (Nature Communications, 2025).
Where “and” joins values, the source holds several entries; their conditions need not be identical. Equal values may be shown once. Read-outs that look alike come from different tables or passages of the source.

Biological target: T1, DrOTOP1 (Danio rerio, UniProt Q7ZWK8)
T1 construct: A previously generated codon-optimized full-length DrOTOP1[8]; (UniProt: Q7ZWK8) construct; expressed in transfected cells; host or cells: HEK-293 (CRL-1573, ATCC)
T1 sequence (Q7ZWK8 1-586): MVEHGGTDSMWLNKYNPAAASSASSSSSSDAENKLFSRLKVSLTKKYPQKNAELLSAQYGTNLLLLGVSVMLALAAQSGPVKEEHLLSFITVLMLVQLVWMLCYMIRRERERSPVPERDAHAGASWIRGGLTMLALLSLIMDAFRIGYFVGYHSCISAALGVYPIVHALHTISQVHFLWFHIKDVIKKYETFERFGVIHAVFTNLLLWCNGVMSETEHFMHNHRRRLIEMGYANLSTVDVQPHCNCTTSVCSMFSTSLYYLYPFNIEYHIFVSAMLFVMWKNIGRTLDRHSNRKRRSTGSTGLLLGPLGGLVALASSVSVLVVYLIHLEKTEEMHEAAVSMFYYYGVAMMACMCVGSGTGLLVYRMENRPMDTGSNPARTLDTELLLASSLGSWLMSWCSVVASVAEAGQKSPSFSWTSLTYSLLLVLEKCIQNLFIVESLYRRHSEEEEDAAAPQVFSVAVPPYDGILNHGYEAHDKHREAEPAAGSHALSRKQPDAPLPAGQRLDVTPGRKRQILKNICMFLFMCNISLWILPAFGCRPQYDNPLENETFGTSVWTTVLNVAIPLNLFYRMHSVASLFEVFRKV
Assay: Whole-cell patch-clamp, inhibition of acid-evoked currents, WT DrOTOP1 expressed in HEK-293 cells
Type: cell-based, zebrafish (Danio rerio)
Parameters: key to inhibition of acid-evoked current, mean (Mean 1): % inhibition = ((I2peak-I1)/I2peak)*100
Settings: for inhibition at 200 µM: read-out: Inhibition of currents
Excerpt: The 50 molecules identified were individually tested by whole-cell patch-clamp electrophysiology for effects on DrOTOP1 expressed in human embryonic kidney (HEK)−293 cells. […] This approach enabled us to observe the on- and off-responses of each compound. To quantify the effect of each compound, we compared the current magnitude during compound application immediately before wash-off, to the peak inward current following its removal (Supplementary Fig. 2A).
HEK-293 cells (CRL-1573, ATCC) were cultured in DMEM (Thermofisher 11995073) containing 10% fetal bovine serum (Life Technology 16000044) and Penicillin-Streptomycin (100 I.U./mL) and (100 µg/mL), respectively. Cells were transfected with WT DrOTOP1 or mutant DrOTOP1 channels in 35 mm petri dishes, with ~ 500 ng DNA and 2 μL TransIT-LT1 transfection reagent (Mirus Bio Corporation, Cat # MIR2300) following the manufacturer’s protocol. All constructs were subcloned into a pcDNA3.1 vector that adds an N-terminal fusion tag consisting of an octahistidine tag followed by eGFP, a Gly-Thr-Gly-Thr linker and a 3C protease cleavage site ([…]) followed by WT DrOTOP1, WT mOTOP1, WT hOTOP1, or mutated DrOTOP1. Point mutations were generated via In-Fusion Cloning (Takara) using single-stranded DNA primers generated through IDT and sequence confirmed by Sanger sequencing (GeneWiz).
Whole-cell patch-clamp recording was performed as previously described[6],[22],[25]. Recordings were made with an Axopatch 200B amplifier, digitized with a Digidata 1322a 16-bit data acquisition system, acquired with pClamp 8.2 and analyzed with Clampfit 10 (Molecular Devices). Recordings were sampled at 5 kHz and filtered at 1 kHz. Patch Pipettes with resistance of […] were fabricated from borosilicate glass, and only recordings with a giga-Ohm seal were used in analysis. Membrane potential was held at −80 mV for the duration of recordings. At the beginning of recordings and between, cells were washed with Tyrode’s solution (see below). Once a giga-Ohm seal was reached, cells were lifted and placed in front of microcapillary tubes controlled by a Fast-Step perfusion system (Warner Instruments) so that extracellular solutions could be rapidly exchanged during each experiment.
Standard Tyrode’s solution consisted of 145 mM NaCl, 5 mM KCl, MgCl2, 2 mM CaCl2, 20 mM D-Glucose, and 10 mM HEPES (for pH 7.4). All other extracellular patch-clamp solutions contained 160 mM NMDG-Cl, 2 mM CaCl2, and the following buffers: 10 mM HEPES (for pH 7.4), 10 mM MES (for pH 6.5-5.5), 10 mM CHES for pH 10, and 10 mM HomoPIPES for (pH 5.0). pH adjusted with HCl. […] The pipette contained intracellular solution made up of 120 mM Cs-aspartate, 15 mM CsCl, 2 mM Mg-ATP, 5 mM EGTA, 2.4 mM CaCl2 (100 nM free Ca^2+), and 10 mM HEPES with a pH of 7.3. All extracellular solution osmolarity was adjusted to 300 mOsm and intracellular osmolarity was adjusted to 290 mOsm.
All data are presented as mean ± SEM unless otherwise noted, and each data point represents an independent replicant. Inhibition of compounds was quantified as ((I2peak-I1)/(I2peak))*100, where I1 is the current immediately before wash-off and I2peak is the maximum recovered current (Supplementary Fig. 2). Hill coefficients were determined by the following equation: Y = Bmax*X^h/(Kd^h + X^h).

[1] = 10 µM, pH 5, WT DrOTOP1, single cells
[2] = 10 µM, pH 6, WT DrOTOP1, single cells
[3] = 30 µM, pH 5, WT DrOTOP1, single cells
[4] = 30 µM, pH 6, WT DrOTOP1, single cells
[5] = 100 µM, pH 5, WT DrOTOP1, single cells
[6] = 100 µM, pH 6, WT DrOTOP1, single cells
[7] = 200 µM, pH 5.5, WT DrOTOP1, dose-response, single cells
[8] = 300 µM, pH 5.5, WT DrOTOP1, single cells
[9] = HEK293, pH 5, 30 µM, pH 5, WT DrOTOP1, single cells
[10] = HEK293, pH 5.5, 200 µM, pH 5.5, WT DrOTOP1, dose-response, single cells
[11] = HEK293, pH 5.5, 300 µM, pH 5.5, WT DrOTOP1, single cells
[12] = HEK293, pH 6, 10 µM, pH 6, WT DrOTOP1, single cells
[13] = HEK293, pH 6, 30 µM, pH 6, WT DrOTOP1, single cells
[14] = HEK293, pH 6, 100 µM, pH 6, WT DrOTOP1, single cells

Structure (SMILES): C=C(C)COc1ccccc1NC(=O)c1nc[nH]c1C [C2.2]
- Inhibition of currents (0.1 µM, pH 5.5, WT DrOTOP1, single cells): 2.61% and 0.5081% and 0.05491%
- Inhibition of currents (0.3 µM, pH 5.5, WT DrOTOP1, single cells): 3.209% and 3.843%
- Inhibition of currents (1 µM, pH 5, WT DrOTOP1, single cells): 3.034% and 6.744% and 2.835%
- Inhibition of currents (1 µM, pH 5.5, WT DrOTOP1, single cells): 3.496% and 5.882% and 11.0667%
- Inhibition of currents (1 µM, pH 6, WT DrOTOP1, single cells): 7.93% and 17.0523% and 15.485%
- Inhibition of currents (3 µM, pH 5.5, WT DrOTOP1, single cells): 21.7626% and 20.6603%
- Inhibition of currents [1]: 57.3692% and 44.5762% and 37.4476% and 30.9804% and 33.0274%
- Inhibition of currents [2]: 62.6907% and 69.8462% and 72.5518% and 60.5453%
- Inhibition of currents [3]: 79.1499% and 75.7339% and 78.9474%
- Inhibition of currents (30 µM, pH 5.5, WT DrOTOP1, single cells): 91.4446% and 86.3672% and 87.3001% and 85.4679%
- Inhibition of currents [4]: 89.6104% and 92.0062%
- Inhibition of currents [5]: 98.8642% and 100.372%
- Inhibition of currents [6]: 101.656% and 100.935% and 99.4036%
- Inhibition of pH 5.5-induced currents, screen 2 (200 µM compound, HEK-293 cells expressing DrOTOP1, Vm -80 mV, values of single cells, FDA 1-3 = FDA-approved drugs): fully blocked
- Inhibition of currents [7]: 99.9505% and 99.4475% and 98.9119%
- Inhibition of currents [8]: 99.8351% and 99.4122% and 98.63%
- inhibition at 30 µM [9]: 79.1%
- inhibition at 100 µM (HEK293, pH 5, 100 µM, pH 5, WT DrOTOP1, single cells): 99.1%
- inhibition at 0.3 µM (HEK293, pH 5.5, 0.3 µM, pH 5.5, WT DrOTOP1, single cells): 2.64%
- inhibition at 3 µM (HEK293, pH 5.5, 3 µM, pH 5.5, WT DrOTOP1, single cells): 17%
- inhibition at 30 µM (HEK293, pH 5.5, 30 µM, pH 5.5, WT DrOTOP1, single cells): 88.3%
- inhibition at 100 µM (HEK293, pH 5.5, 100 µM, pH 5.5, WT DrOTOP1, single cells): 99.4%
- inhibition at 200 µM [10]: 100%
- inhibition at 300 µM [11]: 99.9%
- inhibition at 10 µM [12]: 62.3%
- inhibition at 30 µM [13]: 80.7%
- inhibition at 100 µM [14]: 100%
- Mean, Fig 5N (WT + C2.2, n=8): 31.97
- inhibition of acid-evoked current, mean (Mean 1) (WT DrOTOP1, Supp. Fig 5E stats): 99.31
- inhibition of acid-evoked current, mean (Mean 1) (WT DrOTOP1, Supp. Fig 5F stats): 65.72
- Hill coefficient (pH 5.0, WT DrOTOP1): 1.53
- IC50 (pH 5.0, WT DrOTOP1): 12.6 µM
- Hill coefficient (pH 5.5, WT DrOTOP1): 1.52 and 1.5
- IC50 (pH 5.5, WT DrOTOP1): 6.67 µM
- Hill coefficient (pH 6.0, WT DrOTOP1): 1.25
- IC50 (pH 6.0, WT DrOTOP1): 5.99 µM and 5.97 µM

Structure (SMILES): O=C(/C(=N\O)c1ccccc1)c1ccccc1 [C11, benzil monoxime]
- Inhibition of currents [1]: 4.424% and 3.103%
- Inhibition of currents (10 µM, pH 5.5, WT DrOTOP1, single cells or mean): 3.913% and 2.872% and 1.269% and 1.559%
- Inhibition of currents [2]: 7.181% and 5.566% and 5.627%
- Inhibition of currents [3]: 24.2292% and 16.076%
- Inhibition of currents [4]: 21.9002% and 19.6399% and 27.9569%
- Inhibition of currents [5]: 50.6107% and 59.4827% and 56.6039% and 73.4375%
- Inhibition of currents [6]: 58.9165% and 51.9948% and 54.7438% and 59.958%
- Inhibition of pH 5.5-induced currents, screen 1 (200 µM compound, HEK-293 cells expressing DrOTOP1, Vm -80 mV, values of single cells): nearly fully inhibited
- Inhibition of currents (200 µM, pH 5, WT DrOTOP1, single cells): 88.3451% and 83.853%
- Inhibition of currents [7]: 92.006% and 94.7798% and 86.5734%
- Inhibition of currents (200 µM, pH 6, WT DrOTOP1, single cells): 84.9844% and 81.9304% and 93.4599%
- Inhibition of currents (300 µM, pH 5, WT DrOTOP1, single cells): 96.0707% and 96.7562%
- Inhibition of currents [8]: 100.665% and 98.5727% and 97.2447%
- Inhibition of currents (300 µM, pH 6, WT DrOTOP1, single cells): 97.5242% and 103.48%
- inhibition at 10 µM (HEK293, pH 5, 10 µM, pH 5, WT DrOTOP1, single cells): 3.81%
- inhibition at 30 µM [9]: 16.2%
- inhibition at 200 µM (HEK293, pH 5, 200 µM, pH 5, WT DrOTOP1, single cells): 80.8%
- inhibition at 300 µM (HEK293, pH 5, 300 µM, pH 5, WT DrOTOP1, single cells): 101%
- inhibition at 200 µM [10]: 96.6%
- inhibition at 300 µM [11]: 102%
- inhibition at 10 µM [12]: 5.56%
- inhibition at 30 µM [13]: 19%
- inhibition at 100 µM [14]: 68.6%
- inhibition at 200 µM (HEK293, pH 6, 200 µM, pH 6, WT DrOTOP1, single cells): 89.5%
- inhibition at 300 µM (HEK293, pH 6, 300 µM, pH 6, WT DrOTOP1, single cells): 99.8%
- Hill coefficient (pH 5.0, WT DrOTOP1): 1.88
- IC50 (pH 5.0, WT DrOTOP1): 75.2 µM
- Hill coefficient (pH 5.5, WT DrOTOP1): 2.2 and 2.21
- IC50 (pH 5.5, WT DrOTOP1): 76 µM and 76.3 µM
- Hill coefficient (pH 6.0, WT DrOTOP1): 1.67
- IC50 (pH 6.0, WT DrOTOP1): 71.5 µM
